Residues, ends and D or L forms follow the SMILES beside them.
How the values were obtained:
Test in all cases: biochemical
Type in all cases: binding
R190/N192 FPR = R190/N192 FPR (Homo sapiens, UniProt P21462)
R190/K192 FPR = R190/K192 FPR (Homo sapiens, UniProt P21462, N192K)
W190/N192 FPR = W190/N192 FPR (Homo sapiens, UniProt P21462, R190W); conditions: Ki (nM ± SEM) for binding of peptides to W190/N192 FPR
W190/N192 FPR, sequence (P21462 whole entry R190W, looked up): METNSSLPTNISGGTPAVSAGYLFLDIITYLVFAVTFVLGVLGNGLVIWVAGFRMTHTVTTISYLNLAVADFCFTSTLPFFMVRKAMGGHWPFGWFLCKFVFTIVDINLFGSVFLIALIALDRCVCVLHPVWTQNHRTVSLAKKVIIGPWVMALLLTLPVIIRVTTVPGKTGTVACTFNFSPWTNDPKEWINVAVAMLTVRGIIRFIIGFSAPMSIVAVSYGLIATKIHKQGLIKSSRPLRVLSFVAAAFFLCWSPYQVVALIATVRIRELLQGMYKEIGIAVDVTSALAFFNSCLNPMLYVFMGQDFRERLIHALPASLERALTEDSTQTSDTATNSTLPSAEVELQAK

R190/N192 FPR, sequence (P21462 whole entry, looked up): as the sequence (P21462 whole entry R190W, looked up) above, with W190R counted along it
R190/K192 FPR, sequence (P21462 whole entry N192K, looked up): as the sequence (P21462 whole entry R190W, looked up) above, with W190R, N192K counted along it

SMILES | Ki (R190/N192 FPR) | Ki (R190/K192 FPR) | Ki (W190/N192 FPR)
CC(C)C[C@H](NC(=O)[C@@H](N)CCCCN)C(=O)N[C@@H](CC(N)=O)C(=O)N[C@@H](CO)C(=O)N[C@@H](Cc1c[nH]c2ccccc12)C(=O)N[C@@H](CC(=O)O)C(=O)N[C@H](C(=O)N[C@@H](Cc1ccccc1)C(=O)NCC(=O)N[C@@H](CC(N)=O)C(=O)N[C@@H](Cc1c[nH]c2ccccc12)C(=O)N[C@@H](Cc1ccccc1)C(=O)O)C(C)C | 15000 nM | 9500 nM | 4700 ± 290 nM
CC(C)C[C@H](NC(=O)[C@H](CO)NC(=O)[C@H](C)NC(=O)[C@H](Cc1c[nH]c2ccccc12)NC(=O)[C@H](CCCCN)NC(=O)[C@H](CC(=O)O)NC(=O)[C@H](CC(C)C)NC(=O)[C@@H](N)CCC(=O)O)C(=O)N[C@@H](Cc1c[nH]c2ccccc12)C(=O)N[C@@H](CC(N)=O)C(=O)N[C@@H](Cc1c[nH]c2ccccc12)C(=O)N[C@@H](Cc1ccccc1)C(=O)O (H-ELDKWASLWNWF-OH) | 1200 ± 100 nM | 940 ± 150 nM | 1050 ± 100 nM
CC[C@H](C)[C@H](NC(=O)[C@H](CC(N)=O)NC(=O)[C@H](CC(=O)O)NC(=O)[C@@H](NC(=O)[C@H](CC(C)C)NC(=O)[C@@H](NC(=O)[C@H](CCC(N)=O)NC(=O)[C@H](CC(C)C)NC(=O)[C@H](CCCCN)NC(=O)[C@H](CCC(N)=O)NC(=O)[C@@H](N)C(C)C)[C@@H](C)O)[C@@H](C)CC)C(=O)N[C@@H](CC(N)=O)C(=O)N[C@@H](CO)C(=O)N[C@H](C(=O)N[C@@H](CC(C)C)C(=O)N[C@H](C(=O)N[C@@H](CC(=O)O)C(=O)N[C@@H](CC(C)C)C(=O)N[C@@H](CCCCN)C(=O)N[C@@H](Cc1c[nH]c2ccccc12)C(=O)N[C@@H](CC(C)C)C(=O)N[C@@H](CC(N)=O)C(=O)N[C@@H](CCCNC(=N)N)C(=O)N[C@H](C(=O)N[C@@H](CCC(=O)O)C(=O)N[C@H](C(=O)N[C@@H](Cc1ccc(O)cc1)C(=O)N[C@H](C(=O)N[C@@H](CCCCN)C(=O)N[C@@H](Cc1c[nH]c2ccccc12)C(=O)N1CCC[C@H]1C(=O)N[C@@H](Cc1c[nH]c2ccccc12)C(=O)N[C@@H](Cc1c[nH]c2ccccc12)C(=O)N[C@H](C(=O)N[C@@H](Cc1c[nH]c2ccccc12)C(=O)N[C@@H](CC(C)C)C(=O)O)C(C)C)[C@@H](C)CC)[C@@H](C)O)C(C)C)C(C)C)[C@@H](C)O [Coronavirus 229E 36 mer] | 10000 nM | 6800 nM | 1300 ± 60 nM
CC[C@H](C)[C@H](NC(=O)[C@H](C)NC(=O)[C@H](CCC(=O)O)NC(=O)[C@H](CCC(N)=O)NC(=O)[C@H](CC(C)C)NC(=O)[C@H](CCCNC(=N)N)NC(=O)[C@H](CC(N)=O)NC(=O)[C@@H](N)CCSC)C(=O)N[C@@H](CCCCN)C(=O)N[C@H](C(=O)N[C@@H](CC(C)C)C(=O)N[C@@H](CC(N)=O)C(=O)N[C@@H](CCC(N)=O)C(=O)N[C@@H](CO)C(=O)N[C@@H](Cc1ccc(O)cc1)C(=O)N[C@H](C(=O)N[C@@H](CC(N)=O)C(=O)N[C@@H](CC(C)C)C(=O)N[C@@H](CCCCN)C(=O)N[C@@H](CC(=O)O)C(=O)N[C@H](C(=O)NCC(=O)N[C@H](C(=O)N[C@@H](Cc1ccc(O)cc1)C(=O)N[C@@H](CCC(=O)O)C(=O)N[C@@H](Cc1ccc(O)cc1)C(=O)N[C@@H](Cc1ccc(O)cc1)C(=O)N[C@H](C(=O)N[C@@H](CCCCN)C(=O)N[C@@H](Cc1c[nH]c2ccccc12)C(=O)N1CCC[C@H]1C(=O)N[C@@H](Cc1c[nH]c2ccccc12)C(=O)N[C@@H](Cc1ccc(O)cc1)C(=O)N[C@H](C(=O)N[C@@H](Cc1c[nH]c2ccccc12)C(=O)N[C@@H](CC(C)C)C(=O)O)C(C)C)C(C)C)[C@@H](C)O)[C@@H](C)CC)[C@@H](C)CC)C(C)C [Coronavirus OC43 36mer] | 850 ± 80 nM | 740 ± 80 nM | 460 ± 50 nM

From publication PMC2075610 (Biochimica et Biophysica Acta. Molecular Basis of Disease, 2006)
